Patent publication US20130202545A1, “Stablised Polyphenol Derivatives, Process for Their Manufacture, and Uses Thereof” (BERKEM S.A., priority 2010, published 2013)

Test system: explants of human skin
Test: Anti-lipoperoxidant activity: MDA level in UV-irradiated human skin explants
Format: cell-based
Text: Oxygenated free radicals are produced in large quantities on the skin as a result of UV irradiation. These free radical species cause various forms of degradation to cellular components, and in particular, to membrane lipids. The latter are transformed into various hydroperoxide derivatives, such as for example malonyldialdehyde (MDA), and 4-hydrononenal (4-HNE). The determination of the amount of MDA in skin tissues is thus a good indicator of the production of oxygenated free radicals and peroxidation of membrane lipids. A comparison of the levels of MDA between treated and non-treated subjects therefore indicates whether the product applied has anti-lipoperoxidant activity. The model used for the experiments is one of human skin explants which are maintained in survival mode at 37° C., a humid atmosphere and 5% CO2. The skin explants are divided into three positive control batch treated with vitamin E (2 mg per explant) The products to be tested are dissolved at a concentration of 2% Vaseline oil. This solution is applied topically to the skin explants at a rate of one 30 micro-litre application per explant per day for 5 days. […] Levels of MDA (expressed in pmoles of MDA/ml of medium) in the explants are measured for both the treated and untreated batches. […] Antiradical activity was determined using the same method described in example 17. […]

## Vitamin E
Example 21, etherified (silyl ether) OPC, same method as the earlier MDA example
  % Reduction in MDA: 11%
Products 2% in Vaseline oil, 30 micro-litre per explant per day for 5 days (vitamin E 2 mg per explant), UV A and UV B on day 5, treated vs untreated explants
  % Reduction in MDA: 11%
